Reference: PMC4669708 (Cell Death & Disease, 2015)

Tests used:
Assay in all cases: c-ponatinib pulldown LC-MS/MS
Format in all cases: binding
ABL1 = ABL1 (Homo sapiens, UniProt P00519)
In short: (§1)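 c-Ponatinib (25 nmol) immobilized on NHS-Sepharose was incubated with 10 mg whole cell lysate per replicate, in duplicate. Eluates were reduced, alkylated, trypsin-digested and analysed by gel-free 1D LC-MS/MS. Specificity was scored from Mascot, Phenyx and spectral counts, with competition by free compound.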

HCK = HCK (Homo sapiens, UniProt P08631)
In short: as §1

HSPA5 = HSPA5 (Homo sapiens, UniProt P11021)
In short: as §1

HSPA8 = HSPA8 (Homo sapiens, UniProt P11142)
In short: as §1

IRAK4 = target: T1, IRAK4 (Homo sapiens, UniProt Q9NWZ3)
T1 sequence (Q9NWZ3 1-460): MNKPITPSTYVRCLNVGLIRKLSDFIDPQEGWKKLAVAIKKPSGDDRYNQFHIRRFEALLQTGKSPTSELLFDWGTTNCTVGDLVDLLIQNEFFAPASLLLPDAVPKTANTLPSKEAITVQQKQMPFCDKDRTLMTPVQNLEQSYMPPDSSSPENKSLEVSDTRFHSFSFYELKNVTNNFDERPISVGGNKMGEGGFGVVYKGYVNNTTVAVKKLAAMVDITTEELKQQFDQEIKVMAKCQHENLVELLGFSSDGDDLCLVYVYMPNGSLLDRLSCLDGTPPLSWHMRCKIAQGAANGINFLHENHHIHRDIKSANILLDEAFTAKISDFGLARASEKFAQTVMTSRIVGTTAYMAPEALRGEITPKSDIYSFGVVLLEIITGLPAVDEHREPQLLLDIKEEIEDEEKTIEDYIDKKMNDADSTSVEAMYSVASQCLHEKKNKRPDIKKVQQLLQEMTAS
In short: as §1

JAK1 = JAK1 (Homo sapiens, UniProt P23458)
In short: as §1

MELK = MELK (Homo sapiens, UniProt Q14680)
In short: as §1

ABL1, sequence (P00519 whole entry): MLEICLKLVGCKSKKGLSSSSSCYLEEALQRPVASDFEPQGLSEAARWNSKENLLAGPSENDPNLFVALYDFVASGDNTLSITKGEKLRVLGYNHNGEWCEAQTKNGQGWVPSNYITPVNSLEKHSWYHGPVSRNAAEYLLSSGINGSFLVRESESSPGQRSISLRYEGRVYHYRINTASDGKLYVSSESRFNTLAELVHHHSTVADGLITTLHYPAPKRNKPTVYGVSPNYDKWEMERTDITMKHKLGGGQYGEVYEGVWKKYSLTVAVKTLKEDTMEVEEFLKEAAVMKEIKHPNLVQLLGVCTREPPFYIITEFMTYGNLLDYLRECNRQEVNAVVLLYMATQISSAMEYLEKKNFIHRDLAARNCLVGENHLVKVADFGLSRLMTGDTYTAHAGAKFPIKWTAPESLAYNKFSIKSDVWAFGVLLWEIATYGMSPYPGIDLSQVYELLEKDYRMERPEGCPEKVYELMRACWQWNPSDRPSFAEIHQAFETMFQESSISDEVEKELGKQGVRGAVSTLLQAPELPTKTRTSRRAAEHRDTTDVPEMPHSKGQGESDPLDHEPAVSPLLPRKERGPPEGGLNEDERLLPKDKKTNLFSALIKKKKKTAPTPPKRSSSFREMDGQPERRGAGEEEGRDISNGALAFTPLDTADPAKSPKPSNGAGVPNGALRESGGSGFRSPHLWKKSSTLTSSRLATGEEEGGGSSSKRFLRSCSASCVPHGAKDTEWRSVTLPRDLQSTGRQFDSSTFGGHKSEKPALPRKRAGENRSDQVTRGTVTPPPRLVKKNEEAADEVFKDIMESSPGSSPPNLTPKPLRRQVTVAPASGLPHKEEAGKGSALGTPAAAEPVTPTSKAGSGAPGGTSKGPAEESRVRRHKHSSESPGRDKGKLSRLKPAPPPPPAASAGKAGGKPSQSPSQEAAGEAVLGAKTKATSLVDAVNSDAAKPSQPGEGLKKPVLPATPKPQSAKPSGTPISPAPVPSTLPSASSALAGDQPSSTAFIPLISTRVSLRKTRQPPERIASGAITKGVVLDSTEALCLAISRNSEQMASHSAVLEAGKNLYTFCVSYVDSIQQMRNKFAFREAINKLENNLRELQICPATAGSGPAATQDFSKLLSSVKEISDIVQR
HCK, sequence (P08631 whole entry): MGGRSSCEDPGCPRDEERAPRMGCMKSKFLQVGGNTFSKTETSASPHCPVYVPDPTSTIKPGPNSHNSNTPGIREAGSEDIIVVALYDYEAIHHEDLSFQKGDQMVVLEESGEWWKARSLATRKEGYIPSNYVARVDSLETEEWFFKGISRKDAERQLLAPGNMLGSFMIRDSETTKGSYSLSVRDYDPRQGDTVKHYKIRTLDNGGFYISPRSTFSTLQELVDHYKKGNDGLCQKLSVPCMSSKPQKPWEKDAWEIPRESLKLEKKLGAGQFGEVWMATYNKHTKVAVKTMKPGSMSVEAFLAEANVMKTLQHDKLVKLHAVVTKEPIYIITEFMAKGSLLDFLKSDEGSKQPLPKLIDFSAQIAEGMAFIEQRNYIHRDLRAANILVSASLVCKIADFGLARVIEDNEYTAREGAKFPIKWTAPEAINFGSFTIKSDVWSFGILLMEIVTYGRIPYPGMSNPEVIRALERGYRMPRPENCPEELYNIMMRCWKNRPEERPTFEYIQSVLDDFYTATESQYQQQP
HSPA5, sequence (P11021 19-654): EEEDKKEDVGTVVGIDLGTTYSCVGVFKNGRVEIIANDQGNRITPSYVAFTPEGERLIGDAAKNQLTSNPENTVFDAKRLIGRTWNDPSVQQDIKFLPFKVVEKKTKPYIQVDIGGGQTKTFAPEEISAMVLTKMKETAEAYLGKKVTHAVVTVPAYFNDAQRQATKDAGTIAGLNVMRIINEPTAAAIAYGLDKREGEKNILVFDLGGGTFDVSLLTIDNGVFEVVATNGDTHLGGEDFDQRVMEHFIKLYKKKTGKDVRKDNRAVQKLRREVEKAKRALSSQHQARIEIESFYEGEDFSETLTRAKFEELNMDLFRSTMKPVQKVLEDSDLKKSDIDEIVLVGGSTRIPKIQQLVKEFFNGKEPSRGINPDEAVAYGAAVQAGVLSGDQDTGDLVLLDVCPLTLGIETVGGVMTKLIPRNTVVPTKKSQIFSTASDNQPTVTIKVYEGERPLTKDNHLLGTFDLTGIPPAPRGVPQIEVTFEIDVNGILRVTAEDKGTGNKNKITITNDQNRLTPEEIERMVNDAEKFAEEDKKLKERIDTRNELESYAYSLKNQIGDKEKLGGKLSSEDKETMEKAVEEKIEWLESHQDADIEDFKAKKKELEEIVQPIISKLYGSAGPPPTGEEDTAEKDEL
MELK, sequence (Q14680 whole entry): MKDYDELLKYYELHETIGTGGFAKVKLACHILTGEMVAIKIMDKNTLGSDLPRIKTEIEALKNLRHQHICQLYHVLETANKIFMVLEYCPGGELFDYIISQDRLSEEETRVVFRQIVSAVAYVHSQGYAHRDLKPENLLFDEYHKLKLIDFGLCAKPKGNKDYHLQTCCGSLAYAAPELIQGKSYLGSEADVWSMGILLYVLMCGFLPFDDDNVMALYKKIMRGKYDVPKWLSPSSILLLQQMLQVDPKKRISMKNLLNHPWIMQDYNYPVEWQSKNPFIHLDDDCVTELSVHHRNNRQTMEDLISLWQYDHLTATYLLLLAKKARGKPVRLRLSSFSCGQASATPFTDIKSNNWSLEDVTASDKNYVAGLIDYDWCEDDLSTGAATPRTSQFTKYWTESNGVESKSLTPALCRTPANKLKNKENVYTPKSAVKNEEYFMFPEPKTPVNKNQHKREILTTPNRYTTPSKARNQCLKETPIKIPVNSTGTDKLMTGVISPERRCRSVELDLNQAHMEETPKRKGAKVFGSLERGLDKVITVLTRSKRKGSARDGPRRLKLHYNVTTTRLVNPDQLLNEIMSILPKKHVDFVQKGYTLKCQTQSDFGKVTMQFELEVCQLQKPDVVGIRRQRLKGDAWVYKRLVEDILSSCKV
HSPA8, sequence (P11142 whole entry): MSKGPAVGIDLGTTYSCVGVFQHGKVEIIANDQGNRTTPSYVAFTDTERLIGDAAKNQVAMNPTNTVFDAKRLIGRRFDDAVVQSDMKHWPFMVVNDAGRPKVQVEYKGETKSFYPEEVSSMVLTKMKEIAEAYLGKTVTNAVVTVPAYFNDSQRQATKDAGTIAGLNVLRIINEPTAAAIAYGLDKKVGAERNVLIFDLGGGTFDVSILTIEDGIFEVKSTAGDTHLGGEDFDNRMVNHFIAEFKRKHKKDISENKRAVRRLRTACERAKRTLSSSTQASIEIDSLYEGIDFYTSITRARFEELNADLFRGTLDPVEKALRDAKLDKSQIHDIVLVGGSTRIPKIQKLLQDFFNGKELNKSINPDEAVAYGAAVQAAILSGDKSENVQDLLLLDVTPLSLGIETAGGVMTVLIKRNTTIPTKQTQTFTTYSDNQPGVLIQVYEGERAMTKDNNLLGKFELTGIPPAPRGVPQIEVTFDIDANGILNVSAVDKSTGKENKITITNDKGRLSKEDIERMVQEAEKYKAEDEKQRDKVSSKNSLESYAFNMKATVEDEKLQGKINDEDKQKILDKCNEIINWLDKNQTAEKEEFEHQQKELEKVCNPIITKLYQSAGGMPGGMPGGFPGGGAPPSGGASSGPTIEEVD
JAK1, sequence (P23458 whole entry): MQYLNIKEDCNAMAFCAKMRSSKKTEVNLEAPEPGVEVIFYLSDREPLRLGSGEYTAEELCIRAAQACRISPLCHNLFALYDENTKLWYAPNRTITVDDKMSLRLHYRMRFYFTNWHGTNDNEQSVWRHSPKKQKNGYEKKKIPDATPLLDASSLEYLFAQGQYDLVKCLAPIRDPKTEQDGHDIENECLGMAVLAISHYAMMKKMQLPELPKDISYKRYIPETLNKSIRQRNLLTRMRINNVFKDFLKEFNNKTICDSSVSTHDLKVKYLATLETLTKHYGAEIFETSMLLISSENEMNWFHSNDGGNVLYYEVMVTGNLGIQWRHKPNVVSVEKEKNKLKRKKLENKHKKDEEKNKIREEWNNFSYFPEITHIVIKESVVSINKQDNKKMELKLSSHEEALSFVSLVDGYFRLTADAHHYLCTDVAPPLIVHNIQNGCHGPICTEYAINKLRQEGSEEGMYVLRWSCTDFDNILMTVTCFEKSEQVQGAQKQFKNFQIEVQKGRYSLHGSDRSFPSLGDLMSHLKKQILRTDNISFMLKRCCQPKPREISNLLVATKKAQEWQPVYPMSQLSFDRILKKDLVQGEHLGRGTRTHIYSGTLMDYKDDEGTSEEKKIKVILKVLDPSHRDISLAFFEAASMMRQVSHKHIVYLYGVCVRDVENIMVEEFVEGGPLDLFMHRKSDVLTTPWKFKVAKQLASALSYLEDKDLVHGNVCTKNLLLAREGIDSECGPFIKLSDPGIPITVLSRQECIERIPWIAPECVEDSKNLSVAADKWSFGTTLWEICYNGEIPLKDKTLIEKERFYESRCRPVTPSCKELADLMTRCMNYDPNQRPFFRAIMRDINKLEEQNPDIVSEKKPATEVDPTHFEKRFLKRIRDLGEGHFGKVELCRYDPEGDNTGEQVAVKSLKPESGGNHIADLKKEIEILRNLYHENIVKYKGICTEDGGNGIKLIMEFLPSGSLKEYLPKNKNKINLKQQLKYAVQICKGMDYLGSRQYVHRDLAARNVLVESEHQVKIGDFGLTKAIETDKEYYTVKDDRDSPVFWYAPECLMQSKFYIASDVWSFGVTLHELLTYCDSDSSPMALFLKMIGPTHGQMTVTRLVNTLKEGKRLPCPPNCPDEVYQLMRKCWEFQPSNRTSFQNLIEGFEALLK

## Cc1ccc(C(=O)Nc2ccc(CN3CCN(CCCN)CC3)c(C(F)(F)F)c2)cc1C#Cc1cnc2cccnn12 [c-ponatinib]
ABL1; + free ponatinib
  Av. SC comp.: 0
  Total SC comp.: 0
ABL1; no competitor
  Av. SC: 13.75
  Total SC: 55
HCK; + free ponatinib
  Av. SC comp.: 0
  Total SC comp.: 0
HCK; no competitor
  Av. SC: 6
  Total SC: 24
HSPA5; + free ponatinib
  Av. SC comp.: 2.75
  Total SC comp.: 11
HSPA5; no competitor
  Av. SC: 7
  Total SC: 28
HSPA8; + free ponatinib
  Av. SC comp.: 17.25
  Total SC comp.: 69
HSPA8; no competitor
  Av. SC: 29.25
  Total SC: 117
IRAK4; + free ponatinib
  Av. SC comp.: 2.5
  Total SC comp.: 10
IRAK4; no competitor
  Av. SC: 8.5
  Total SC: 34
JAK1; + free ponatinib
  Av. SC comp.: 0
  Total SC comp.: 0
JAK1; no competitor
  Av. SC: 21.5
  Total SC: 86
MELK; + free ponatinib
  Av. SC comp.: 1
  Total SC comp.: 4
MELK; no competitor
  Av. SC: 5
  Total SC: 20
